Molecular target: T1, Pancreatic alpha-amylase (Sus scrofa, UniProt P00690)
T1 sequence (P00690 whole entry): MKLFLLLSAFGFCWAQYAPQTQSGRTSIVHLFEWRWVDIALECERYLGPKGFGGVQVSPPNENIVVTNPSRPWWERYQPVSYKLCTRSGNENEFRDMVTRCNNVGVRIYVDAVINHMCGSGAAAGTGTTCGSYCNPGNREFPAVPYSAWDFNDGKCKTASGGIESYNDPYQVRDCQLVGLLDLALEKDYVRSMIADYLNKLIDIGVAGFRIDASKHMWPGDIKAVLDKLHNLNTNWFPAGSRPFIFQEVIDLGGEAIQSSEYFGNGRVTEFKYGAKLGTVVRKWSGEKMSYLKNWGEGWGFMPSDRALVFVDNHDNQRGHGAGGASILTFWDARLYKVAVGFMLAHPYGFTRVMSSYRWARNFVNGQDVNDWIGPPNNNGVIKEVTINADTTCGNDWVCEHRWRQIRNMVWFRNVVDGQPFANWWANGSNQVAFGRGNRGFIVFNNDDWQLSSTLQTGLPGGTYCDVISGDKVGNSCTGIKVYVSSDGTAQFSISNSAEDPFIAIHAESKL
Test: Inhibition of pig pancreatic alpha-amylase by Bernfeld method

| SMILES | IC50 [µM] |
| --- | --- |
| CSC(CC(=O)c1ccc(Br)cc1)=Nc1nc2ccccc2s1 | 17.8 |
| CCOc1ccc2nc(N=C(CC(=O)c3ccc(Cl)cc3)SC)sc2c1 | 17.9 |
